Values of other authors in US20120245028A1, “Methods for Use of Tetraalkyl Ammonium Halide Compositions as Post-emergence Higher Plant Herbicides” (priority 2011, published 2012).

Legend:
[1] = system: infected field apple trees; conditions: infected field apple trees treated with 5% solution
[2] = system: small apple tree seedlings; conditions: following fungus inoculation and a treatment with 5% solution

SMILES: CCCCCCCCCC[N+](C)(C)CCCCCCCCCC.[Br-] [DDAB, didecyl dimethyl ammonium bromide]
- damage caused by the treatments [1]: no obvious damage
- effect upon the total number of growing buds [1]: no effect
- phytotoxicity [2]: severe phytotoxicity
